Reference: paper PMC12720098, “Prolintane analogs as hybrid monoamine transporter ligands: Structural determinants and species differences” (The Journal of Biological Chemistry, 2025)
Read-outs that look alike come from different tables or passages of the source.

Key:
hSERT [1] = target: T1, hSERT (Homo sapiens, UniProt P31645); assay: Uptake inhibition assay ([3H]5-HT) in transfected HEK293 cells; format: cell-based
T1 construct: expressed in transfected cells
Protocol: (§1) HEK293 cells stably expressing human monoamine transporters hSERT, hDAT or hNET were seeded into poly-D-lysine (PDL) coated 96-well plates with a density of approximately 36,000 cells per well 1 day prior to experiments. A day after seeding, the cell medium was replaced with 200 μl Krebs-HEPES-buffer (KHB; 120 mM NaCl, 3 mM KCl, 2 mM CaCl2·2H2O, 2 mM MgCl2·6H2O, 20 mM D-glucose, pH = 7.3). The test drugs were initially dissolved in Milli-Q H2O or dimethyl sulfoxide (DMSO) at a concentration of 10 to 100 mM. Then, cells were treated with the respective concentration of the test drug diluted in KHB for 5 min as a pre-incubation step. Subsequently, in the uptake step, the solution was replaced with 50 μl/well diluted drug solution and tritiated substrate (hDAT: 0.1 μM [^3H]DA; hNET: 0.02 μM [^3H]MPP^+; hSERT: 0.1 μM [^3H]5-HT) for 1 min (hDAT, hSERT) or 3 min (hNET). After incubation, cells were immediately washed with 200 μl KHB to stop uptake. Uptake was indirectly measured by quantifying beta emission with liquid scintillation counting (Wallac 1450 MicroBeta TriLux Liquid Scintillation Counter & Lumi; GMI). Therefore, 200 μl Ultima Gold XR scintillation cocktail (PerkinElmer, MA, USA) was added to each well.
(§2) Half-maximal inhibitory concentrations (IC50) were obtained from fitting a sigmoidal dose–response ( Y=Bottom+Top−Bottom/1+10^((LogIC50−X)·HillSlope) ) in GraphPad Prism 10.3.1 (GraphPad Software Inc.). Uptake inhibition data were evaluated by one-way ANOVA followed by Tukey's multiple comparisons test. Release data were analyzed using a two-way ANOVA (batch release) or a mixed-effects model with Geisser-Greenhouse correction (time-dependent traces) employing Šidák correction for comparing differences between compounds with or without the addition of monensin.

hNET [2] = target: T2, hNET (Homo sapiens, UniProt P23975); assay: Uptake inhibition assay ([3H]MPP+) in transfected HEK293 cells; format: cell-based
T2 construct: expressed in transfected cells
Protocol: as §1, §2

hDAT = target: T3, hDAT (Homo sapiens, UniProt Q01959); assay: Batch release assay ([3H]MPP+) in transfected HEK293 cells; format: cell-based; conditions: % efflux of total uptake, compounds approximately at IC50 concentration
T3 construct: expressed in transfected cells
Protocol: (§3) Batch release assays were performed as described previously ([44]). In brief, HEK293 cells stably expressing monoamine transporters were seeded similar to the procedure used for uptake inhibition assays. A day after seeding cells were pre-loaded with 50 μl/well 0.015 μM [^3H]MPP^+ (hDAT, hNET), or 0.08 μM [^3H]5-HT (hSERT) for 20 min at 37 °C. Then cells were washed four times for 3 to 4 min each and further incubated with KHB or KHB + monensin. After 10 min of incubation, two (screening) to four (full traces; hSERT) 2 min incubations were performed to establish a baseline release without substance. […] Each fraction was transferred to an empty well in the 96-well plate. For screening, a known inhibitor (hDAT, hNET: 50 μM GBR12909) and releaser (hDAT, hNET: 10 μM S-(+)-amphetamine) were used as controls. Ultima Gold XR scintillation cocktail was added to the remaining cells, and each well contained a release fraction. The counted radioactivity in the respective fraction was expressed as a percentage of total radioactivity at the start of the fraction.
as §2

hNET [3] = target: T2, hNET; assay: as above; format: cell-based; conditions: % efflux of total uptake, compounds approximately at IC50 concentration
Protocol: as §3, §2

hSERT [4] = target: T1, hSERT; format: cell-based; conditions: for Mean diff, hSERT efflux ± Mon (Šídák's multiple comparisons test): drug alone vs drug + monensin (Mon); for hSERT efflux ± Mon, mean diff: superfusion
Protocol: A day prior to the experiment, HEK293 cells stably expressing hSERT or rat SERT (rSERT) were seeded at a density of 100,000 cells per channel into 6 channel flow ibidi slides (Gräfelfing, Germany). On the day of the experiments, cells were preloaded with 0.1 μM [^3H]5-HT at 37 °C, 5% CO2 for 20 min. Subsequently, the slides were transferred to the superfusion apparatus ([59]). Cells were then washed with KHB for 15 min under a constant flow of 0.5 ml/min. Fractions were collected every 2 min in 8 ml vials containing 2 ml scintillation cocktail. Collection began with three baseline fractions using KHB, followed by four additional basal release fractions with KHB, either with or without 10 μM monensin. […] To assess residual radioactivity within the cells, they were lysed with 1% sodium dodecyl sulfate (SDS), and three final fractions were obtained. The measured tritiated substrate in each fraction was expressed as a percentage of the initial tritiated substrate present at the start of that fraction.
as §2

hSERT [5] = target: T1, hSERT; format: cell-based; conditions: for Mean of normalized currents elicited through hSERT by drug application: normalized to 10 µM 5-HT current
Protocol: (§4) One day prior to recording, either native HEK293 cells or HEK293 cells stably expressing monoamine transporters were seeded at low density onto PDL-coated 35 mm dishes. Patch-clamp experiments were conducted at a holding potential of −60 mV, with substrate-induced currents recorded at room temperature (20–24 °C) using an […] amplifier and pClamp 11.2 software (MDS Analytical Technologies). During recordings, cells were continuously superfused via a DAD-12 perfusion system and an 8-tube manifold (ALA Scientific Instruments), delivering an external solution composed of 140 mM NaCl, 2.5 mM CaCl2, 3 mM KCl, 2 mM MgCl2, 20 mM glucose, and 10 mM HEPES, with pH adjusted to 7.3 using NaOH. The intracellular pipette solution, designed to mimic physiological ionic conditions, contained 133 mM potassium gluconate, 5.9 mM NaCl, 1 mM CaCl2, 0.7 mM MgCl2, 10 mM HEPES, and 10 mM EGTA, with pH set to 7.2 using KOH. Currents were filtered at 1 kHz and digitized at 10 kHz via a Digidata 1550 digitizer (MDS Analytical Technologies), followed by analysis in Clampfit 10.2 (Molecular Devices). Substance-induced currents were normalized to the current elicited by a saturating concentration of 5-HT (10 μM) of the same cell. Holding currents were subtracted, and a 50 Hz digital Gaussian low-pass filter was applied to the traces for further analysis.

native HEK293 cells = assay: Whole-cell patch-clamp control in native HEK293 cells without transfection; format: cell-based, human; conditions: prolintane 30 µM, 5-HT 10 µM (Fig. S3)
Protocol: as §4

hSERT [6] = target: T1, hSERT; parameters: method as in PMID 30397775; conditions: cited from earlier work

T1 sequence (P31645 whole entry): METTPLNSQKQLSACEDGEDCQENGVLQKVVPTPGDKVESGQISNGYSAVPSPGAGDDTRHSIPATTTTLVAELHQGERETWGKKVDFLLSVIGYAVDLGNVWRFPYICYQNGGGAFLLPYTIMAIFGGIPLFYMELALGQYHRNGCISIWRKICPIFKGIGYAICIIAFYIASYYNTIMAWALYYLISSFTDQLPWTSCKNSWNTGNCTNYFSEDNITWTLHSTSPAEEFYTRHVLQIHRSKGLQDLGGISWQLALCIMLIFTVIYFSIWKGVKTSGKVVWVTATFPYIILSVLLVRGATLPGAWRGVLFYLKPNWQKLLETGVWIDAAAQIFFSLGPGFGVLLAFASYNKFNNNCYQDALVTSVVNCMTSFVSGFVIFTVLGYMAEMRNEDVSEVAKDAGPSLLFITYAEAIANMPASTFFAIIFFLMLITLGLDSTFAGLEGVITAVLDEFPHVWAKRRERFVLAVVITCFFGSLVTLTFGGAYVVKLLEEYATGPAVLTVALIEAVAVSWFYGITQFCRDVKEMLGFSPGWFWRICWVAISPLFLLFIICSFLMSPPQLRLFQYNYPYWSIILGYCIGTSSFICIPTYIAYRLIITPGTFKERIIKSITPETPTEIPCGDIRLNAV
T2 sequence (P23975 whole entry): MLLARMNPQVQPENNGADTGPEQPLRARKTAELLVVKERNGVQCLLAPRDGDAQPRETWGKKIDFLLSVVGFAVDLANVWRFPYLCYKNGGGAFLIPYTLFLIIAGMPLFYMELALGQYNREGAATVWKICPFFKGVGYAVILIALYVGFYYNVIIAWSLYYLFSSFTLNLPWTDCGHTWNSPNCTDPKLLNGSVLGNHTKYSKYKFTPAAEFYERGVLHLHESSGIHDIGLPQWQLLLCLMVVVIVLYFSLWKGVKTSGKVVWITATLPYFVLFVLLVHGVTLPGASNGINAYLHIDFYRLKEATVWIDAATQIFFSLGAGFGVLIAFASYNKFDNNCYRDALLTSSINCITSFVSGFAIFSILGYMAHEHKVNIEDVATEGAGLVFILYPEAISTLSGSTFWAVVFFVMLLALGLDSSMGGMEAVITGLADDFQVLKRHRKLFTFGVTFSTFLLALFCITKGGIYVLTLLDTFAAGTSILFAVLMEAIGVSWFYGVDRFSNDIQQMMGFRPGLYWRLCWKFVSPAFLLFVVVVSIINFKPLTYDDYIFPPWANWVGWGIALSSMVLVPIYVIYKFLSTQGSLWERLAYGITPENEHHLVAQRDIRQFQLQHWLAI
T3 sequence (Q01959 whole entry): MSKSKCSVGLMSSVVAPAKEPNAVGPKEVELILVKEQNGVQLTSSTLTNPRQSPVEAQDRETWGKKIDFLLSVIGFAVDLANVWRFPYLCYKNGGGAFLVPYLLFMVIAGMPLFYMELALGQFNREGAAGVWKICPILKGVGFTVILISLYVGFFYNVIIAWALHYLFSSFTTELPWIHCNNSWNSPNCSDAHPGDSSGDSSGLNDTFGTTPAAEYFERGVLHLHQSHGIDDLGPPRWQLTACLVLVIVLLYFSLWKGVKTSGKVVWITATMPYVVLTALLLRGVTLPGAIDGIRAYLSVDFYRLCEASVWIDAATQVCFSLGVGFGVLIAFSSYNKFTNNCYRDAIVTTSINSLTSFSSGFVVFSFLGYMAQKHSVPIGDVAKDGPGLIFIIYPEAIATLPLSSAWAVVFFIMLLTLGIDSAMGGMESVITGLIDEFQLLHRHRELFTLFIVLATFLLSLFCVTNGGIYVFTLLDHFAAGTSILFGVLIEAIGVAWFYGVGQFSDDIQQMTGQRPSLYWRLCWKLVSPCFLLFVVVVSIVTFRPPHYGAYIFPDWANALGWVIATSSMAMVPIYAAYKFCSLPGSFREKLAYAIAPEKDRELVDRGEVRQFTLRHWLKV

| Structure (SMILES) | IC50 (hSERT [1]) | IC50 (hNET [2]) | hDAT-mediated efflux, predicted (LS) mean diff, No mon - Mon (hDAT) | hNET-mediated efflux, predicted (LS) mean diff, No mon - Mon (hNET [3]) | Mean diff, hSERT efflux ± Mon (Šídák's multiple comparisons test) (hSERT [4]; Row 1 (time fraction)) | Mean diff, hSERT efflux ± Mon (Šídák's multiple comparisons test) (hSERT [4]; Row 2 (time fraction)) | Mean diff, hSERT efflux ± Mon (Šídák's multiple comparisons test) (hSERT [4]; Row 3 (time fraction)) | Mean diff, hSERT efflux ± Mon (Šídák's multiple comparisons test) (hSERT [4]; Row 4 (time fraction)) | Mean diff, hSERT efflux ± Mon (Šídák's multiple comparisons test) (hSERT [4]; Row 5 (time fraction)) | Mean diff, hSERT efflux ± Mon (Šídák's multiple comparisons test) (hSERT [4]; Row 6 (time fraction)) | Mean diff, hSERT efflux ± Mon (Šídák's multiple comparisons test) (hSERT [4]; Row 7 (time fraction)) | Mean diff, hSERT efflux ± Mon (Šídák's multiple comparisons test) (hSERT [4]; Row 8 (time fraction)) | Mean diff, hSERT efflux ± Mon (Šídák's multiple comparisons test) (hSERT [4]; Row 9 (time fraction)) | Mean diff, hSERT efflux ± Mon (Šídák's multiple comparisons test) (hSERT [4]; Row 10 (time fraction)) | Mean diff, hSERT efflux ± Mon (Šídák's multiple comparisons test) (hSERT [4]; Row 11 (time fraction)) | Mean diff, hSERT efflux ± Mon (Šídák's multiple comparisons test) (hSERT [4]; Row 12 (time fraction)) | Mean of normalized currents elicited through hSERT by drug application (hSERT [5]) | further results |
| --- | --- | --- | --- | --- | --- | --- | --- | --- | --- | --- | --- | --- | --- | --- | --- | --- | --- | --- |
| CCCC(Cc1ccc(F)cc1)N1CCCC1 (stereo not drawn) [4-Fluoroprolintane, 1-[1-(4-fluorophenyl)pentan-2-yl]pyrrolidine] | 19600 ± 2430 nM | 307 ± 97 nM | -0.2875 | 0.3845 | -0,0007778 | 0,02200 | 0,004889 | -0,08044 | -0,1983 | -0,2323 | -0,3017 | -8,349 | -9,598 | -8,382 | -7,454 | -6,666 | 0.3167 | – |
| CCCC(Cc1ccc(C)cc1)N1CCCC1 (stereo not drawn) [4-Methylprolintane, 1-[1-(4-methylphenyl)pentan-2-yl]pyrrolidine] | 2560 ± 515 nM | 72 ± 14 nM | -0.8967 | -0.3451 | -0,002444 | 0,005667 | -0,04278 | -0,1390 | -0,3006 | -0,3681 | -0,4242 | -4,103 | -5,748 | -5,723 | -5,744 | -5,949 | 0.21 | inhibitory potency at hSERT compared to pyrovalerone, fold greater (hSERT [1]; pyrovalerone value ref 53): 10 fold |
| CCCC(Cc1ccccc1)N1CCCC1 (stereo not drawn) [Prolintane, 1-(1-phenylpentan-2-yl)pyrrolidine] | 28600 ± 4010 nM | 59 ± 7 nM | 0.1383 | -0.3446 | – | – | – | – | – | – | – | – | – | – | – | – | 0.2567 | IC50 at hSERT, fold weaker than at hDAT and hNET (hSERT [1]; HEK293 cells): more than 500 fold; hSERT efflux ± Mon, mean diff (hSERT [4]; Row 1 (2 min fraction 1, baseline KHB)): 0.02682; hSERT efflux ± Mon, mean diff (hSERT [4]; Row 2 (2 min fraction 2, baseline KHB)): 0.1025; hSERT efflux ± Mon, mean diff (hSERT [4]; Row 3 (2 min fraction 3, baseline KHB)): 0.1806; hSERT efflux ± Mon, mean diff (hSERT [4]; Row 4 (fraction 4, KHB with or without 10 μM monensin)): 0.1203; hSERT efflux ± Mon, mean diff (hSERT [4]; Row 5 (fraction 5, KHB with or without 10 μM monensin)): 0.07151; hSERT efflux ± Mon, mean diff (hSERT [4]; Row 6 (fraction 6, KHB with or without 10 μM monensin)): -0.1392; hSERT efflux ± Mon, mean diff (hSERT [4]; Row 7 (fraction 7, KHB with or without 10 μM monensin)): -0.1744; hSERT efflux ± Mon, mean diff (hSERT [4]; Row 8 (fraction 8, compound at IC50 concentration)): -5.479; hSERT efflux ± Mon, mean diff (hSERT [4]; Row 9 (fraction 9, compound at IC50 concentration)): -6.902; hSERT efflux ± Mon, mean diff (hSERT [4]; Row 10 (fraction 10, compound at IC50 concentration)): -6.703; hSERT efflux ± Mon, mean diff (hSERT [4]; Row 11 (fraction 11, compound at IC50 concentration)): -6.503; hSERT efflux ± Mon, mean diff (hSERT [4]; Row 12 (fraction 12, compound at IC50 concentration)): -6.083; hSERT-mediated current (hSERT [5]; prolintane 30 µM, after 5-HT washout (Fig. S2)): elicited an inward current; current in native HEK293 cells without transfection (native HEK293 cells): do not induce currents; current in native HEK293 cells without transfection (native HEK293 cells; listed as prolintane): no current could be recorded; effects at hSERT, fold weaker than at hDAT and hNET (hSERT [6]): approximately 10 fold |
